# Laboratory results reported in ChEMBL document CHEMBL1138775, “Soft docking and multiple receptor conformations in virtual screening” (J Med Chem, 2004).
# pIC50: −log10 of the molar value.
# Biological target: T1, Aldo-keto reductase family 1 member B1 (Sus scrofa, UniProt P80276)
# Experiment: Inhibition of aldose reductase from pig lenses; no inhibition
row,pIC50,SMILES
1,< 3.40,CC(OCc1ccc(Cl)cc1)C(NC(=O)CC(C)(C)C)C(=O)O (stereo not drawn)
2,< 3.52,CC(OCc1ccccc1)C(NC(=O)OCc1ccccc1)C(=O)O (stereo not drawn)

# Biological target: T1, Aldo-keto reductase family 1 member B1
# Experiment: Inhibition of aldose reductase from pig lenses
row,pIC50,SMILES
1,4.85,O=C(O)Cc1cn(Cc2cccc(Cl)c2)c2ccccc12
2,3.47,Clc1ccc(CN(Cc2ccc(Cl)cc2)c2nnn[nH]2)cc1
3,3.56,O=C(O)c1nnn(-c2cccc(Br)c2)c1-c1ccccc1
4,5.10,O=C(O)C1CC(=O)N(Cc2ccc(Cl)cc2)C1 (stereo not drawn)
5,5.96,O=C1NC(=O)[C@@]2(CCOc3ccc(F)cc32)N1 [SORBINIL]
6,7.42,COc1ccc2c(C(=S)N(C)CC(=O)O)cccc2c1C(F)(F)F [TOLRESTAT]
